According to patent US20080261895A1 (Wyeth, priority 2006, published 2008):

Key:
[1] = system: adrenergic receptors; details: in vitro; cited from earlier work
[2] = system: monoamine oxidase; details: cited from earlier work
[3] = system: histaminergic receptors; details: in vitro; cited from earlier work
[4] = system: dog liver microsomes; experiment: Glucuronidation in dog liver microsomes; assay type: in vitro ADME; details: dog liver microsomes 1 mg/mL, 100 μM, 30 minutes
Experimental: To confirm the site of glucuronidation of DVS, incubations were performed using dog liver microsomes. These incubations compared the glucuronidation of DVS to venlafaxine. […] Reactions were initiated by the addition of UDPGA (final concentration 1 mM). An additional set of incubations was performed for venlafaxine with UDPGA and an NADPH generating system. […] Reactions were stopped by the addition of 500 μL of acetonitrile and processed as described above. Samples were analyzed by LC/MS.

[5] = system: Adrenergic a; details: cited from earlier work
[6] = Metabolites of DVS observed by LC/MS in dog plasma, urine and feces; assay type: in vivo, beagle dogs; details: P: plasma, U: urine, F: feces
Experimental: An Agilent Model 1100 HPLC system (Agilent Technologies, Wilmington, Del.) including an autosampler and diode array UV detector was used for LC/MS analysis. The UV detector was set to monitor 200 to 400 nm. Separations were accomplished on a 5 micron Phenomenex Luna C18(2) column, 150×2 mm (Phenomenex). The column temperature was 25° C. For selected LC/MS analyses, radiochromatograms were acquired using a β-RAM model 3 radioactivity flow detector (IN/US Systems Inc., Tampa, Fla.) equipped with a solid scintillation flow cell.
The mass spectrometers used for metabolite characterization were a Micromass Q-TOF-2 quadrupole time-of-flight hybrid mass spectrometer (Micromass, Inc., Beverly, Mass.) and a Finnigan LCQ Deca ion trap mass spectrometer (ThermoFinnigan, San Jose, Calif.). The mass spectrometer was equipped with an electrospray ionization (ESI) interface and operated in the positive ionization mode.

[7] = target: Histamine Hi (Homo sapiens, UniProt P35367); details: cited from earlier work
Chain of Histamine Hi (P35367 whole entry): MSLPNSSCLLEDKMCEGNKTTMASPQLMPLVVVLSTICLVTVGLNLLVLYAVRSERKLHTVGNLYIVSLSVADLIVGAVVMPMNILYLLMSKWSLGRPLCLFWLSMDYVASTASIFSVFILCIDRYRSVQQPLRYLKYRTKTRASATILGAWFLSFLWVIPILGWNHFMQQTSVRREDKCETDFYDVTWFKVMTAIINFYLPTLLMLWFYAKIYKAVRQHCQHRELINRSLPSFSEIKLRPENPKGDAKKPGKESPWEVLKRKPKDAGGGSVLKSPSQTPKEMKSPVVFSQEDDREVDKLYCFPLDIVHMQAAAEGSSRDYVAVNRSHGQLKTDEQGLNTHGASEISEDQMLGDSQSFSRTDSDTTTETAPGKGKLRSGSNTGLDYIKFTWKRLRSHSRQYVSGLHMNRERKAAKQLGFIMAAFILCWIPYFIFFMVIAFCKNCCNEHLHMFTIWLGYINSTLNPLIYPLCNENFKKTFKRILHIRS

[8] = system: Opiate; details: cited from earlier work
[9] = target: D2 (Homo sapiens, UniProt P14416); details: cited from earlier work
Chain of D2 (P14416 whole entry): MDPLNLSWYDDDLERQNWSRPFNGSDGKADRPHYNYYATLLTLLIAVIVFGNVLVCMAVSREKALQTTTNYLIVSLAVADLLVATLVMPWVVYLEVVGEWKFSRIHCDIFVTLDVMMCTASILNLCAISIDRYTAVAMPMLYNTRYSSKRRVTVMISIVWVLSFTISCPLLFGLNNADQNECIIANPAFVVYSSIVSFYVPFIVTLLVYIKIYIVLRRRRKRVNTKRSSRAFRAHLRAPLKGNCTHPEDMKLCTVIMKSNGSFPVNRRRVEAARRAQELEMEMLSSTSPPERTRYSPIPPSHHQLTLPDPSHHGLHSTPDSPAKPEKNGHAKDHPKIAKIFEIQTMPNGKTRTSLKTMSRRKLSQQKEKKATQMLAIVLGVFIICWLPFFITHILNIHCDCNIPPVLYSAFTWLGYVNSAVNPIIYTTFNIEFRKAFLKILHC

[10] = Metabolites of DVS observed by LC/MS in rat plasma, urine and feces; assay type: in vivo, Sprague Dawley rats; details: P: plasma, U: urine, F: feces
Experimental: An Agilent Model 1100 HPLC system (Agilent Technologies, Wilmington, Del.) including an autosampler and diode array UV detector was used for LC/MS analysis. The UV detector was set to monitor 200 to 400 nm. Separations were accomplished on a 5 micron Phenomenex Luna C18(2) column, 150×2 mm (Phenomenex). The column temperature was 25° C. The mobile phases and gradient program were as follows.
The mass spectrometer used for metabolite characterization was a Micromass Q-TOF-2 quadrupole time-of-flight hybrid mass spectrometer (Micromass, Inc., Beverly, Mass.). The mass spectrometer was equipped with an electrospray ionization (ESI) interface and operated in the positive ionization mode.

[11] = system: s Cholinergic; details: cited from earlier work
[12] = system: Reserpine-Induce Hypothermia; details: cited from earlier work

Compound | affinity for adrenergic receptors [1] | inhibitory activity on monoamine oxidase [2] | affinity for histaminergic receptors [3] | glucuronidation ([4]; in the presence of both UDPGA and NADPH) | glucuronidation ([4]; in the presence of only UDPGA) | Affinity for Various Neuroreceptors (% inhibition at 1 uM): Adrenergic a [5] [%] | Matrix (metabolite observed by LC/MS) [6] | Affinity for Various Neuroreceptors (% inhibition at 1 uM): Histamine Hi [7] [%] | Affinity for Various Neuroreceptors (% inhibition at 1 uM): Opiate [8] [%] | Affinity for Various Neuroreceptors (% inhibition at 1 uM): D2 [9] [%] | Matrix (metabolite observed by LC/MS) [10] | Affinity for Various Neuroreceptors (% inhibition at 1 uM): s Cholinergic [11] [%] | Reversal of Reserpine-Induce Hypothermia (minimum effect; mg&g i.p.) [12] [mg&g]
COc1ccc(C(CN(C)C)C2(O)CCCCC2)cc1 (stereo not shown) [venlafaxine, 1-[2-(dimethylamino)-1-(4-methoxyphenyl)ethyl]cyclohexanol] | virtually no affinity | no inhibitory activity | virtually no affinity | observed | not | – | – | – | – | – | – | – | –
CN(C)CC(c1ccc(O)cc1)C1(O)CCCCC1 (stereo not shown) [O-DESMETHYLVENLAFAXINE, 1-[2-(dimethylamino)-1-(4-phenol)ethyl]-cyclohexanol] | – | – | – | – | – | 0 | P, U, F | 0 | 7 | 6 | P, U, F | 7 | 3
